These results are taken from patent US8569450B2, “CD3 epsilon immunogens and antibodies” (Health Research Inc., priority 2010, dated 2013).

The test system of the experiment is anti-human detection antibody. Kind of experiment: CD3ε peptide ELISA, alkaline phosphatase based, peptides coated on Costar high binding plates. The arrangement: species or system chicken. The note with it: single peptide coated on plate, plate blank subtracted, both peptides tested under the same conditions. The source says:
The capture antibody of the CDR assay was produce by inoculation with 2 peptides. The sequence of these two peptides is AKAKPVTRGAGA (SEQ ID NO: 1) and LYSGLNQRRI (SEQ ID NO: 2) respectively. To determine the key immune-dominate region of the peptide, 12 variants of original peptide 1 (SEQ ID NO: 1) and 10 variants of original peptide 2 (SEQ ID NO: 2) were made with alanine substitution (or valine when alanine is the original amino acid). These were produced by GenScript, shipped, in solid form, at room temperature, to our lab and were dissolved in 1 ml of 0.05 TBS buffer.
Single peptides were coated on to Costar high binding 96 well plates at a concentration of 10 μg and 2 μg in 0.05 TBS buffer pH 7.4 in quadruplicate and tested in an alkaline phoshotase based ELISA. Plate blanks were subtracted from the optical densities obtained for each peptide. The peptides are compared to the original by percent of original signal. As noted in Table 1 the twelfth substitution was both an alanine at position twelve and a glutamic acid for threonine at position seven. This was an inadvertent oversight by the manufacturer.
The results from using a coating concentration of 2 μg/ml were similar.
The OD for original peptide 1 (SEQ ID NO: 1) was 1.5 and peptide 2 (SEQ ID NO: 2) elicited a signal of 1.0 when tested under the same conditions.

Consider “AKAKPVTRGAGA (listed as Homo sapiens) [original peptide 1, CD3 epsilon immunogen peptide, 12AA]”, for which the “OD (optical density) by ELISA” value was 1.5.

As for “LYSGLNQRRI (listed as Homo sapiens) [peptide 2, CD3 epsilon immunogen peptide, 10AA]”, the “OD (optical density) by ELISA” value was found to be 1.0.
